Measurements from US12275684B2, “Methods for making and using endoxifen” (Atossa Therapeutics, Inc., priority 2017, dated 2025).

Assay: Placebo controlled, dose escalation pharmacokinetic study of oral (Z)-Endoxifen capsules (serum endoxifen; incl. accumulation ratios and dose linearity)
Assay type: in vivo, human
Set-up: Serum concentration, Maximum / Serum concentration, GeoMean / Serum concentration, Mean / Serum concentration, Median / terminal rate constant: unit not given here
Details: for AUC24hr / AUC to last time point / AUC(0-inf): in ng·h/mL
Description: An objective of the study was to assess the safety and tolerability of oral (Z)-Endoxifen when administered […] orally as a capsule to healthy female volunteers. A secondary objective was to assess the pharmacokinetics of multiple doses of oral (Z)-Endoxifen in the subjects.
Generally, healthy female volunteers aged ≥18 years and ≤65 years were enrolled. 24 participants were enrolled in 3 cohorts and will be administered study drug orally. Three dose levels of orally administered (Z)-Endoxifen were investigated in 3 cohorts. In each cohort participants were randomized to receive an oral (Z)-Endoxifen or placebo in a blinded fashion. Enteric-resistant capsules used in the study were designed as delayed release capsules to resist rupture for at least 30 minutes, but typically, for about 2 hours, under gastric conditions and then open fully in intestinal fluid (DRCaps; Capsugel, a Lonza Company, USA). Enteric-resistant (Swedish Orange size Zero (0); Capsugel, USA) DRCaps capsules manually filled with 1, 2 or 4 mg of (Z)-endoxifen neat in compliance with GMP requirements were used. Placebo capsules contained microcrystalline cellulose an inert common capsule and tablet excipient.
Each cohort enrolled 8 participants, with 6 participants receiving (Z)-Endoxifen 1 mg capsules orally at 1 mg (Cohort 1), 2 mg (Cohort 2) or 4 mg (Cohort 3) doses and 2 participants receiving matching placebo capsules. In Cohort 1 (Dose Level=1 mg) two participants (sentinels) were dosed 24 hours prior to the remaining participants. One sentinel was dosed with (Z)-Endoxifen and the other with placebo. The remaining six participants in Cohort 1 were dosed as no safety concerns were identified in the sentinel participants. The non-sentinel participants in Cohort 1 were admitted to the clinical research facility at least one day later than the sentinels. There were no sentinels in Cohorts 2 and 3.
Participant engagement in this study was for a period of 56 days. These included a 28 day screening period, and a 7 day post treatment period for Pharmacokinetic (PK) sampling. There were two confinement periods, one at the beginning and one at the end of the dosing periods. Participants were confined to the clinical facility on Days-1 through to Day 2 and Days 21 and 22. If participants were to experience any clinically significant adverse events during the study, they would have been required to remain in the clinical facility for further observation at the discretion of the Principal Investigator (PI).
Healthy female volunteers were screened within 28 days prior to commencement of dosing. Participants were admitted to the clinical facility on Day-1 for up to 3 days. The first dose of (Z)-Endoxifen or placebo capsules was administered on Day 1. Following completion of all safety assessments and sampling for PK analyses, participants were discharged from the clinical facility on Day 2. The first dose on Day 1 was followed by a 6-day treatment free period (Days 2-7). Each participant returned to the clinical facility for PK blood draws and safety assessments during the treatment free period on study Days 4 and 6. On Day 8 participants commenced daily administration of (Z)-Endoxifen capsules or placebo capsules for 14 consecutive days (Days 8-21). Participants were supplied with study drug capsules and asked to self administer daily. Participants visited the clinical facility on Days 11, 14 and 17, prior to dose administration, for PK blood draws and safety assessments. On the morning of Day 21 each participant returned to the clinical facility prior to dose administration and were confined to the facility until Day 22 to allow for the collection of PK blood draws and safety assessments. The Day 21 dose was the last administration of study drug. Participants were discharged from the clinical facility on Day 22 and returned for PK blood draws and safety assessments on study Days 24, 26, and 28. […]

[1] = Day 1, dose 4 mg oral, Maximum, N 6
[2] = Day 1, dose 4 mg oral, Minimum, N 6
[3] = Day 21, dose 2 mg oral once daily, GeoMean, N 6
[4] = Day 21, dose 2 mg oral once daily, Maximum, N 6
[5] = Day 21, dose 2 mg oral once daily, Mean, N 6
[6] = Day 21, dose 2 mg oral once daily, Median, N 6
[7] = Day 21, dose 2 mg oral once daily, Minimum, N 6
[8] = Day 21, dose 4 mg oral once daily, GeoMean, N 6
[9] = Day 21, dose 4 mg oral once daily, Maximum, N 6
[10] = Day 21, dose 4 mg oral once daily, Mean, N 6
[11] = Day 21, dose 4 mg oral once daily, Median, N 6
[12] = Day 21, dose 4 mg oral once daily, Minimum, N 6

CL/F, Min (Day 1, 1 mg, N = 5): 1.35 L/h | Cmax, Max (Day 1, 1 mg, N = 5): 12.0 ng/mL | Cmax, Min (Day 1, 1 mg, N = 5): 7.0 ng/mL | Kel, GeoMean (Day 1, 1 mg, N = 5): 0.015 h⁻¹ | Kel, Max (Day 1, 1 mg, N = 5): 0.018 h⁻¹ | Kel, Mean (Day 1, 1 mg, N = 5): 0.015 h⁻¹ | Kel, Median (Day 1, 1 mg, N = 5): 0.015 h⁻¹ | Kel, Min (Day 1, 1 mg, N = 5): 0.013 h⁻¹ | Thalf, GeoMean (Day 1, 1 mg, N = 5): 45.6 h | Thalf, Max (Day 1, 1 mg, N = 5): 54.4 h | Thalf, Mean (Day 1, 1 mg, N = 5): 46.1 h | Thalf, Median (Day 1, 1 mg, N = 5): 47.2 h | Thalf, Min (Day 1, 1 mg, N = 5): 37.5 h | Tmax, Max (Day 1, 1 mg, N = 5): 8.08 h | Tmax, Min (Day 1, 1 mg, N = 5): 2.0 h | CL/F, GeoMean (Day 1, 2 mg, N 6): 1.85 L/h | CL/F, Maximum (Day 1, 2 mg, N 6): 2.65 L/h | CL/F, Mean (Day 1, 2 mg, N 6): 1.89 L/h | CL/F, Median (Day 1, 2 mg, N 6): 1.83 L/h | CL/F, Minimum (Day 1, 2 mg, N 6): 1.34 L/h | Cmax, Maximum (Day 1, 2 mg, N 6): 22.0 ng/mL | Cmax, Minimum (Day 1, 2 mg, N 6): 13.0 ng/mL | Kel, GeoMean (Day 1, 2 mg, N 6): 0.015 h⁻¹ | Kel, Maximum (Day 1, 2 mg, N 6): 0.018 h⁻¹ | Kel, Mean (Day 1, 2 mg, N 6): 0.015 h⁻¹ | Kel, Median (Day 1, 2 mg, N 6): 0.016 h⁻¹ | Kel, Minimum (Day 1, 2 mg, N 6): 0.010 h⁻¹ | Thalf, GeoMean (Day 1, 2 mg, N 6): 47.7 h | Thalf, Maximum (Day 1, 2 mg, N 6): 68.1 h | Thalf, Mean (Day 1, 2 mg, N 6): 49.0 h | Thalf, Median (Day 1, 2 mg, N 6): 44.0 h | Thalf, Minimum (Day 1, 2 mg, N 6): 37.8 h | Tmax, Minimum (Day 1, 2 mg, N 6): 3.00 h | terminal rate constant (Day 1, dose 4 mg oral, GeoMean, N 6): 0.017 | Cmax [1]: 62.0 ng/mL | Tmax [1]: 10.00 h | apparent terminal half life (t½) [1]: 56.0 h | terminal rate constant [1]: 0.022 | AUC24hr [1]: 1116 | AUC to last time point [1]: 3574 | AUC(0-inf) [1]: 4624 | terminal rate constant (Day 1, dose 4 mg oral, Mean, N 6): 0.017 | terminal rate constant (Day 1, dose 4 mg oral, Median, N 6): 0.017 | Cmax [2]: 14.0 ng/mL | Tmax [2]: 3.00 h | apparent terminal half life (t½) [2]: 31.6 h | terminal rate constant [2]: 0.012 | AUC24hr [2]: 258 | AUC to last time point [2]: 691 | AUC(0-inf) [2]: 736 | CL/F, GeoMean (Day 21, 1 mg, N = 5): 2.32 L/h | CL/F, Maximum (Day 21, 1 mg, N = 5): 4.03 L/h | CL/F, Mean (Day 21, 1 mg, N = 5): 2.49 L/h | CL/F, Median (Day 21, 1 mg, N = 5): 1.90 L/h | CL/F, Minimum (Day 21, 1 mg, N = 5): 1.57 L/h | Cmax, Maximum (Day 21, 1 mg, N = 5): 34.0 ng/mL | Cmax, Minimum (Day 21, 1 mg, N = 5): 14.0 ng/mL | Kel, GeoMean (Day 21, 1 mg, N = 5): 0.013 h⁻¹ | Kel, Maximum (Day 21, 1 mg, N = 5): 0.017 h⁻¹ | Kel, Mean (Day 21, 1 mg, N = 5): 0.014 h⁻¹ | Kel, Median (Day 21, 1 mg, N = 5): 0.014 h⁻¹ | Kel, Minimum (Day 21, 1 mg, N = 5): 0.011 h⁻¹ | Thalf, GeoMean (Day 21, 1 mg, N = 5): 51.7 h | Thalf, Maximum (Day 21, 1 mg, N = 5): 65.8 h | Thalf, Mean (Day 21, 1 mg, N = 5): 52.6 h | Thalf, Median (Day 21, 1 mg, N = 5): 49.3 h | Thalf, Minimum (Day 21, 1 mg, N = 5): 40.6 h | Tmax, Maximum (Day 21, 1 mg, N = 5): 8.42 h | Css (AUCtau/tau) [3]: 37.4 ng/mL | terminal rate constant [3]: 0.016 | Cmax [4]: 65.0 ng/mL | Css (AUCtau/tau) [4]: 49.1 ng/mL | Tmax [4]: 6.05 h | apparent terminal half life (t½) [4]: 50.8 h | terminal rate constant [4]: 0.021 | AUC24hr [4]: 1177 | Css (AUCtau/tau) [5]: 38.0 ng/mL | terminal rate constant [5]: 0.016 | Css (AUCtau/tau) [6]: 37.9 ng/mL | terminal rate constant [6]: 0.015 | Cmax [7]: 35.0 ng/mL | Css (AUCtau/tau) [7]: 29.8 ng/mL | Tmax [7]: 2.00 h | apparent terminal half life (t½) [7]: 33.0 h | terminal rate constant [7]: 0.014 | AUC24hr [7]: 716 | Css (AUCtau/tau) [8]: 72.7 ng/mL | terminal rate constant [8]: 0.016 | Cmax [9]: 178.0 ng/mL | Css (AUCtau/tau) [9]: 126.4 ng/mL | Tmax [9]: 10.00 h | apparent terminal half life (t½) [9]: 54.3 h | terminal rate constant [9]: 0.020 | AUC24hr [9]: 3034 | Css (AUCtau/tau) [10]: 85.1 ng/mL | terminal rate constant [10]: 0.016 | Css (AUCtau/tau) [11]: 102.9 ng/mL | terminal rate constant [11]: 0.015 | Cmax [12]: 42.0 ng/mL | Css (AUCtau/tau) [12]: 25.7 ng/mL | Tmax [12]: 2.00 h | apparent terminal half life (t½) [12]: 34.0 h | terminal rate constant [12]: 0.013 | AUC24hr [12]: 616
SMILES: CC/C(=C(\c1ccc(O)cc1)c1ccc(OCCNC)cc1)c1ccccc1 [(Z)-Endoxifen, (Z)-4-(1-(4-(2-(methylamino)ethoxy)phenyl)-2-phenylbut-1-enyl) phenol]
